Experimental data taken from patent publication US9340590B2 (priority 2011, dated 2016).
Positions of bridges follow the written chain, without caps; N, C: chain ends. Residues, ends and D or L forms follow the SMILES beside them.

How the values were obtained:
Test in all cases: cell-based
hNav1.7 = hNav1.7 (Homo sapiens, UniProt Q15858); format: cell-based; conditions: IonWorks Quattro, Use; read-out: IWQ Use Nav1.7
hNav1.5 = hNav1.5 (Homo sapiens, UniProt Q14524); conditions: IonWorks Quattro, Use; read-out: IWQ Use Nav1.5
hNav1.3 = hNav1.3 (Homo sapiens, UniProt Q9NY46); conditions: IonWorks Quattro, Use; read-out: IWQ Use Nav1.3
hNav1.3, sequence (Q9NY46 whole entry, looked up): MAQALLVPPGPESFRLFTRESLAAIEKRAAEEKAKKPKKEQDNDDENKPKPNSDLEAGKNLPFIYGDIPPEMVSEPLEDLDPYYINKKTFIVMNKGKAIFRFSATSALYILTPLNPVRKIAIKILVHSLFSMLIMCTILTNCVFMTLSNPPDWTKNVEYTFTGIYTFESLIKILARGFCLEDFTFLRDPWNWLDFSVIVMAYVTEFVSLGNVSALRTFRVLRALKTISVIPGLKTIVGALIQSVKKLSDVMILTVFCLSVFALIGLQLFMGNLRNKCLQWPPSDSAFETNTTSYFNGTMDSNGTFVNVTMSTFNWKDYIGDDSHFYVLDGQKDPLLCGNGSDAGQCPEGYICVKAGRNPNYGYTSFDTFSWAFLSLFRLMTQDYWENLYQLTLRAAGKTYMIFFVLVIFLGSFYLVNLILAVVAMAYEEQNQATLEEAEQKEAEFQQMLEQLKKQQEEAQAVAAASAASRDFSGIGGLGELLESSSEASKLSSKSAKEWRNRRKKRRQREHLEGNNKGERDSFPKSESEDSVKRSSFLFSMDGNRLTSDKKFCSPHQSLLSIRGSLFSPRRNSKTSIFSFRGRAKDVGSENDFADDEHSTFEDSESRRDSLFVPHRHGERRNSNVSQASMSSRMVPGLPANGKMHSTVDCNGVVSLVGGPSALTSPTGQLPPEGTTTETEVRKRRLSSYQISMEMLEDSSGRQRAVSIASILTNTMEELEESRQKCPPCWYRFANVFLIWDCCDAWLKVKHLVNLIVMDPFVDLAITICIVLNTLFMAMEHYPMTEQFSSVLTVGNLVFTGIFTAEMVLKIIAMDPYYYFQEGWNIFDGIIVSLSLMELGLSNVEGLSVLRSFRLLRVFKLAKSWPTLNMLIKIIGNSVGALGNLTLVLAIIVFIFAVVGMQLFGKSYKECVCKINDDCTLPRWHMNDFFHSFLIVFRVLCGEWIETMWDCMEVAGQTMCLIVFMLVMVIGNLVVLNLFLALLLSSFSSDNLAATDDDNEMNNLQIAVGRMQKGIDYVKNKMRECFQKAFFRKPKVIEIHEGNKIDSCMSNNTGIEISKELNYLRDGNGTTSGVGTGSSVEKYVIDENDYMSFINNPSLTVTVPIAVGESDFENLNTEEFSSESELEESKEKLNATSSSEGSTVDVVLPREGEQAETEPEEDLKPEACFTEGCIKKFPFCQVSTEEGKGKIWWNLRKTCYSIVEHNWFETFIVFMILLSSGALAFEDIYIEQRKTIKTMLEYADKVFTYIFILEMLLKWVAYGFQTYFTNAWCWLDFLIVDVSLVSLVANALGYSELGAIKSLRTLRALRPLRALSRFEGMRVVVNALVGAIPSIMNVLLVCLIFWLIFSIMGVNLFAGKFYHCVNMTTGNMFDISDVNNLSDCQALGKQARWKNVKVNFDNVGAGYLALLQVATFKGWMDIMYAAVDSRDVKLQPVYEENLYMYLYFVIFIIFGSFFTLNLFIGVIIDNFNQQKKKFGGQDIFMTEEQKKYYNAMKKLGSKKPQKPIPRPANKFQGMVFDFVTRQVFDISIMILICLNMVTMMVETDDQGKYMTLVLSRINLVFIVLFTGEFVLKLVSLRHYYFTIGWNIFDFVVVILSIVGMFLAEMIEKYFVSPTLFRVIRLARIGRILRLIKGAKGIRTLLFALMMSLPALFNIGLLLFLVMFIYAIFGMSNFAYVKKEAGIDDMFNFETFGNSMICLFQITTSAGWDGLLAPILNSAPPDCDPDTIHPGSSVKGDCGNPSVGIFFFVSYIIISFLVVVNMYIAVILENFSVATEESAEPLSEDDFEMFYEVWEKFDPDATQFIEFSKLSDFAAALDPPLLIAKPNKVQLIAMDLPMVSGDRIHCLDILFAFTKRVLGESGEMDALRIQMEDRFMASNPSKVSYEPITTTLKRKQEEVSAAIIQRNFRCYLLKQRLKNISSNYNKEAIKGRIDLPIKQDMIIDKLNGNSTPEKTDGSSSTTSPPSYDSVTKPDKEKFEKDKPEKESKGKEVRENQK

hNav1.5, sequence (Q14524 whole entry, looked up): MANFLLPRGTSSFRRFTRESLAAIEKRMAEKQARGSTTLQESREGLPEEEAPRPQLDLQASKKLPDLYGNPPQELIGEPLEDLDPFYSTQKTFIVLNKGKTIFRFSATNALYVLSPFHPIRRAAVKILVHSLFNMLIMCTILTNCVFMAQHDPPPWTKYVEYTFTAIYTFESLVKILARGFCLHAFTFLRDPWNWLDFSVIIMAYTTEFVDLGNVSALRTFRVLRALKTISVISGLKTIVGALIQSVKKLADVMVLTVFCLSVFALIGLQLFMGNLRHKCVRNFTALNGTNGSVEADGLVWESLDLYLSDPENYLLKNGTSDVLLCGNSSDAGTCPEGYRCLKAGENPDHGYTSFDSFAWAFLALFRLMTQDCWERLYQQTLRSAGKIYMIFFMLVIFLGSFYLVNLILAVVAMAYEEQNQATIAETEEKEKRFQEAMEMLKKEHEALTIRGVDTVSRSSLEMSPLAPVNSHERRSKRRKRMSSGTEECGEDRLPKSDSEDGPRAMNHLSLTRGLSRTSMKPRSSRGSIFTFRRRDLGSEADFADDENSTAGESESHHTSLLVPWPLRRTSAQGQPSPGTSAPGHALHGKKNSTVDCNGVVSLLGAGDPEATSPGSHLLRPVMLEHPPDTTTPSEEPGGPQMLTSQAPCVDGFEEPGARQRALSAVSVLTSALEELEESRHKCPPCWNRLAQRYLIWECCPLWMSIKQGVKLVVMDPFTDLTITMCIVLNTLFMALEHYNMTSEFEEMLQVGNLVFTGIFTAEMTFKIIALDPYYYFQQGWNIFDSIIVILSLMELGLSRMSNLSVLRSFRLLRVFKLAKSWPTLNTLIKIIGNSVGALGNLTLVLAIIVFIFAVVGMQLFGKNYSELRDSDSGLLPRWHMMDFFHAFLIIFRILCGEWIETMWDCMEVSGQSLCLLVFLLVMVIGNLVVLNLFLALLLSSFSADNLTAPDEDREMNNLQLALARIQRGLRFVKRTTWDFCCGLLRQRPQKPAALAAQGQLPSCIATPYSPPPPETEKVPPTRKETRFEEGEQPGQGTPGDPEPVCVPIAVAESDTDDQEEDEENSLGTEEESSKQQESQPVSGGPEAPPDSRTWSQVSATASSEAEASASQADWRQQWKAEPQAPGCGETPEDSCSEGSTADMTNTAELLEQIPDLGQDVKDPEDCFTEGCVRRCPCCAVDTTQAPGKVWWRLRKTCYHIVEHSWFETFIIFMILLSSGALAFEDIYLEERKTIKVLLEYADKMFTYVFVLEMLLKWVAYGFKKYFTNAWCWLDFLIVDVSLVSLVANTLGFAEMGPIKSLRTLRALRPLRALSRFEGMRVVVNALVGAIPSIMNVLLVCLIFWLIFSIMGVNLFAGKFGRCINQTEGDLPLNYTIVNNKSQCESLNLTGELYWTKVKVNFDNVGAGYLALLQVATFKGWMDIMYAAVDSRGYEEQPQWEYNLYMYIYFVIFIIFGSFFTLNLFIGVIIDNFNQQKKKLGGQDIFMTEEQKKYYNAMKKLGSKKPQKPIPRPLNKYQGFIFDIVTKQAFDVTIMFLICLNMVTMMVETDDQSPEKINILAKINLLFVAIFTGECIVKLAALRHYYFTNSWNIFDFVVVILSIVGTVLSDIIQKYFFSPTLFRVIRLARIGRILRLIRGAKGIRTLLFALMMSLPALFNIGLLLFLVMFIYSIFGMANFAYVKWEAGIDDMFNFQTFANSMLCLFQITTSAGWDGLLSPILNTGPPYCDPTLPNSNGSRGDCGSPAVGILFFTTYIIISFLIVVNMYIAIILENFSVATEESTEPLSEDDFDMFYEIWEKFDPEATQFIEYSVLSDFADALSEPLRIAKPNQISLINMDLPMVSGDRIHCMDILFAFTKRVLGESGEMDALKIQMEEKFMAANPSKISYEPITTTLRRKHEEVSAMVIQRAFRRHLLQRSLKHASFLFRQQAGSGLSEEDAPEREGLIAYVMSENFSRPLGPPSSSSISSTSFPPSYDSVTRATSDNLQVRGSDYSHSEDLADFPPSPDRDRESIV

Compound	IC50 (hNav1.7) [µM]	IC50 (hNav1.5) [µM]	IC50 (hNav1.3) [µM]
CC[C@H](C)[C@@H]1NC(=O)[C@@H]2CSSC[C@@H]3NC(=O)[C@H](C(C)C)NC(=O)[C@H](CC(C)C)NC(=O)[C@H](CCC(=O)O)NC(=O)[C@@H]4CCCN4C(=O)[C@H](CCCNC(=N)N)NC(=O)[C@H](CSSC[C@H](NC(=O)[C@@H](N)CC(=O)O)C(=O)N[C@@H](CC(C)C)C(=O)NCC(=O)N[C@@H](Cc4ccccc4)C(=O)N[C@@H](CCSC)C(=O)N[C@@H](CCCNC(=N)N)C(=O)N[C@@H](CCCCN)C(=O)N2)NC(=O)[C@H](CSSC[C@@H](C(=O)N[C@@H](CCCCN)C(=O)N[C@@H](Cc2ccc(O)cc2)C(=O)N[C@H](C(=O)N[C@@H](Cc2ccccc2)C(N)=O)C(C)C)NC(=O)[C@H](Cc2c[nH]c4ccccc24)NC(=O)[C@H](CCCCN)NC(=O)[C@H](Cc2cnc[nH]2)NC(=O)[C@H]([C@@H](C)O)NC(=O)[C@H](CCCNC(=N)N)NC(=O)[C@H](CO)NC3=O)NC(=O)[C@H](CCCCN)NC(=O)[C@H](CC(=O)O)NC(=O)[C@H](CC(N)=O)NC(=O)[C@H](CC(=O)O)NC(=O)[C@@H]2CCCN2C1=O [compound 149] (H-DCLGFMRKCIPDNDKCCRPELVCSRTHKWCKYVF-NH2; disulfide 2-17, 9-23, 16-30)	1.42	7.49	1.02
CC[C@H](C)[C@@H]1NC(=O)[C@@H]2CSSC[C@@H]3NC(=O)[C@H](C(C)C)NC(=O)[C@H](CC(C)C)NC(=O)[C@H](CC(N)=O)NC(=O)[C@@H]4CCCN4C(=O)[C@H](CCCNC(=N)N)NC(=O)[C@H](CSSC[C@H](NC(=O)[C@@H](N)CC(=O)O)C(=O)N[C@@H](CC(C)C)C(=O)NCC(=O)N[C@@H](Cc4ccccc4)C(=O)N[C@@H](CCSC)C(=O)N[C@@H](CCCNC(=N)N)C(=O)N[C@@H](CCCCN)C(=O)N2)NC(=O)[C@H](CSSC[C@@H](C(=O)N[C@@H](CCCCN)C(=O)N[C@@H](Cc2ccc(O)cc2)C(=O)N[C@H](C(=O)N[C@@H](Cc2ccccc2)C(N)=O)C(C)C)NC(=O)[C@H](Cc2c[nH]c4ccccc24)NC(=O)[C@H](CCCCN)NC(=O)[C@H](Cc2cnc[nH]2)NC(=O)[C@H]([C@@H](C)O)NC(=O)[C@H](CCCNC(=N)N)NC(=O)[C@H](CCC(=O)O)NC3=O)NC(=O)[C@H](CCCCN)NC(=O)[C@H](CC(=O)O)NC(=O)[C@H](CC(N)=O)NC(=O)[C@H](CC(=O)O)NC(=O)[C@@H]2CCCN2C1=O [compound 150] (H-DCLGFMRKCIPDNDKCCRPNLVCERTHKWCKYVF-NH2; disulfide 2-17, 9-23, 16-30)	6.12	11.5	6.78
CC[C@H](C)[C@@H]1NC(=O)[C@@H]2CSSC[C@@H]3NC(=O)[C@H](C(C)C)NC(=O)[C@H](CC(C)C)NC(=O)[C@H](CC(N)=O)NC(=O)[C@@H]4CCCN4C(=O)[C@H](CCCNC(=N)N)NC(=O)[C@H](CSSC[C@H](NC(=O)[C@@H](N)CC(=O)O)C(=O)N[C@@H](CC(C)C)C(=O)NCC(=O)N[C@@H](Cc4ccccc4)C(=O)N[C@@H](CCSC)C(=O)N[C@@H](CCCNC(=N)N)C(=O)N[C@@H](CCCCN)C(=O)N2)NC(=O)[C@H](CSSC[C@@H](C(=O)N[C@@H](CCCCN)C(=O)N[C@@H](Cc2ccc(O)cc2)C(=O)N[C@H](C(=O)N[C@@H](Cc2ccccc2)C(N)=O)C(C)C)NC(=O)[C@H](Cc2c[nH]c4ccccc24)NC(=O)[C@H](CCCCN)NC(=O)[C@H](Cc2c[nH]cn2)NC(=O)[C@H]([C@@H](C)O)NC(=O)[C@H](CCC(=O)O)NC(=O)[C@H](CO)NC3=O)NC(=O)[C@H](CCCCN)NC(=O)[C@H](CC(=O)O)NC(=O)[C@H](CC(N)=O)NC(=O)[C@H](CC(=O)O)NC(=O)[C@@H]2CCCN2C1=O [compound 151] (H-DCLGFMRKCIPDNDKCCRPNLVCSETHKWCKYVF-NH2; disulfide 2-17, 9-23, 16-30)	0.71	14	1.17
